# From ChEMBL document CHEMBL1123919, “Molecular modification of anticholinergics as probes for muscarinic receptors. 3. Conformationally restricted analogues of benactyzine” (J Med Chem, 1987)
# Legend:
# [1] = molecular target: Muscarinic acetylcholine receptor; experiment: Compound was evaluated for the inhibition of binding of [3H]QNB (quinuclidinyl benzilate) to striatal Muscarinic acetylcholine receptor; assay type: protein assay
# Rattus norvegicus = organism: Rattus norvegicus; experiment: Antimuscarinic potency is measured as its ability to block ACh-induced contractions of the rat ileum.; assay type: functional; conditions: read-out: pA2 (converted)
IC50 [1],SMILES,Kb (Rattus norvegicus)
19000 nM,CCN(CC)C[C@H]1C[C@@H]2COC(c3ccccc3)(c3ccccc3)[C@@H]2O1.Cl,
,CCN(CC)CC[C@@H]1COC(c2ccccc2)(c2ccccc2)[C@@H]1O,646 nM
,CCN(CC)CC[C@H]1COC(c2ccccc2)(c2ccccc2)[C@@H]1O,20000 nM
2000 nM,CCN(CC)CCC1COC(c2ccccc2)(c2ccccc2)C1=O.Cl (stereo not given),447 nM
